Tests used:
Human FXIa = target: T1, Human FXIa (Homo sapiens, UniProt P03951); experiment: FXIa inhibitory activity in vitro (fluorogenic substrate Z-Gly-Pro-Arg-AFC), selectivity; type: biochemical; conditions: 25° C.
T1 construct: Human FXIa (Enzyme Research Laboratories) was incubated; purchased Enzyme Research Laboratories
Method: Determination of the % Inhibition for FXIa
Human FXIa (Enzyme Research Laboratories) was incubated at 25° C. with the fluorogenic substrate Z-Gly-Pro-Arg-AFC and various concentrations of the test compound. Residual enzyme activity (initial rate of reaction) was determined by measuring the change in fluorescence at 410 nm and the IC50 value for the test compound was determined.

Human Factor XIIa = target: T2, Human Factor XIIa (Homo sapiens, UniProt P00748); experiment: Factor XIIa inhibitory activity in vitro (fluorogenic substrate H-DPro-Phe-Arg-AFC); type: biochemical; conditions: 25° C., class symbols, read-out: Human FXIIa IC50
T2 construct: purchased Enzyme Research Laboratories
T2 sequence (P00748 373-615 limits assumed): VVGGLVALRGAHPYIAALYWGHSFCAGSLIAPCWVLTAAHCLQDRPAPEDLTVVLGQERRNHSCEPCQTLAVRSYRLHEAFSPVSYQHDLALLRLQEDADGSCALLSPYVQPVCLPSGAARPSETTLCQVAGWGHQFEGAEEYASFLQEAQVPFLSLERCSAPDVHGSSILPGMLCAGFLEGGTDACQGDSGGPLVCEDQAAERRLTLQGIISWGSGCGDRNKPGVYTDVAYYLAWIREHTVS
How it was run: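 Enzyme incubated at 25° C with fluorogenic substrate H-DPro-Phe-Arg-AFC and a range of compound concentrations. Residual activity taken as initial reaction rate from […], giving IC50.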

T1 sequence (P03951 388-625 limits assumed): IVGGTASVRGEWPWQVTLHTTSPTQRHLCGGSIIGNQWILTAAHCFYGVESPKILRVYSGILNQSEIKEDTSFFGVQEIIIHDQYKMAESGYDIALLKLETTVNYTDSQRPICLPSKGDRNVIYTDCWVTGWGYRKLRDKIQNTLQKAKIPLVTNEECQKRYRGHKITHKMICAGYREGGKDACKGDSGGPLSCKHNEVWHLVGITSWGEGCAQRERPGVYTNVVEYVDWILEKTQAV
T1 sequence (P03951 19-387 partner limits assumed): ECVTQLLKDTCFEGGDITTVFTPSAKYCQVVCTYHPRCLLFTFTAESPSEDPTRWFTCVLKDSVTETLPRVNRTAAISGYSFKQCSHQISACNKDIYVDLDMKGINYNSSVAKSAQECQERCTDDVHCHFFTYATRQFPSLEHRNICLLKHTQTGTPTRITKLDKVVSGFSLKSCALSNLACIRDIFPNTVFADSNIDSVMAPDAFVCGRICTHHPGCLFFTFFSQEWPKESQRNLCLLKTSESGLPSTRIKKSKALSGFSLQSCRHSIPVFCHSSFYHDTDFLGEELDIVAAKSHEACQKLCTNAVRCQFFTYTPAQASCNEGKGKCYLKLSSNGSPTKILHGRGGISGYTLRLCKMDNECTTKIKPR

IC50 (Human FXIa; category scale) [µM] | IC50 (Human Factor XIIa) [µM] | IC50 (Human FXIa; numeric bound printed instead of category) [µM] | SMILES
10 to 40 | 0.28 to 1 | – | CC(C)N[C@H](CCCN1CCCCC1)C(=O)N[C@@H](Cc1ccc(F)c(F)c1)C(=O)NCc1ccc2c(N)nccc2c1 [Example 12.04]
10 to 40 | 1 to 3 | – | CC(C)N[C@H](CCCCN1CCCCC1)C(=O)N[C@@H](Cc1ccc2ccccc2c1)C(=O)NCc1ccc2c(N)nccc2c1 [Example 12.08]
10 to 40 | 10 to 40 | – | C[C@H](NC(=O)[C@H](O)CCc1ccccc1)C(=O)NCc1ccc2c(N)nccc2c1 [Example 6.24]
> 40 | 10 to 40 | – | C[C@@H]1CCC[C@H](C)N1CC(=O)N1CC(C(=O)NCc2ccc3c(N)nccc3c2)C1 [Example 32.12]
> 40 | 0.28 to 1 | – | Nc1nccc2cc(CNC(=O)C3(NC(=O)[C@H](N)CCc4ccccc4)CC3)ccc12 [Example 54.01]
1 to 3 | 1 to 3 | – | CCC(C)[C@@H](N)C(=O)N[C@H](CC1CCCC2CCCCC21)C(=O)NCc1ccc(C(=N)N)s1 (some centres unmarked) [Example 71.03]
> 40 | 0.28 to 1 | – | CN[C@H](CCc1ccccc1)C(=O)N1CC[C@H]1C(=O)NCc1ccc2c(N)nccc2c1 [Example 17.08]
10 to 40 | 0.1 to 0.279 | – | Cc1c(CNC(=O)[C@H](C)NC(=O)[C@H](N)CCc2ccccc2)ccc2c(N)nccc12 [Example 9.06]
10 to 40 | 0.28 to 1 | – | C[C@@H]1CCC[C@H](C)N1CC(=O)N1C[C@H](c2ccccc2)C[C@H]1C(=O)NCc1ccc2c(N)nccc2c1 [Example 43.02]
3 to 10 | < 0.03 | – | CC(C)N[C@H](CCCCN1CCCCC1)C(=O)N[C@@H](Cc1cccc2ccccc12)C(=O)NCc1ccc2c(N)nccc2c1 [Example 12.06, (2R)—N-[(1S)-1-{[(1-Aminoisoquinolin-6-yl)methyl]carbamoyl}-2-(naphthalen-1-yl)ethyl]-2-(isopropylamino)-6-(piperidin-1-yl)hexanamide]
> 40 | 0.28 to 1 | – | CC(C)N[C@H](CCCCN1CCOCC1)C(=O)N1CC[C@H]1C(=O)NCc1cnc2[nH]cc(Cl)c2c1 [Example 10.05]
– | 1 to 3 | > 10 | N=C(N)c1ccc(CNC(=O)[C@H](Cc2cccc3ccccc23)NC(=O)c2ccccn2)cc1 [Example 71.02]
> 40 | 10 to 40 | – | Nc1nccc2cc(CNC(=O)CNC(=O)c3ccc(-c4ccncc4)cc3)ccc12 [Example 18.108]
> 40 | 1 to 3 | – | CC(C)N[C@H](CCc1ccccc1)C(=O)N[C@@H](C)C(=O)NCc1cnc2[nH]cc(Cl)c2c1 [Example 9.03]
> 40 | 0.28 to 1 | – | N[C@H](CCc1ccccc1)C(=O)N1CCC1C(=O)NCc1cnc2[nH]cc(Cl)c2c1 (some centres unmarked) [Example 10.02]
> 40 | 10 to 40 | – | CC(C)c1ccnc(C(=O)N[C@@H](Cc2ccc(F)c(F)c2)C(=O)NCc2ccc3c(N)nccc3c2)n1 [Example 0.99]
> 40 | 0.03 to 0.1 | – | N[C@H](CCCCN1CCCCC1)C(=O)N[C@@H](Cc1ccc(F)c(F)c1)C(=O)NCc1cnc2[nH]cc(Cl)c2c1 [Example 27.06]
0.3 to 1 | 3 to 10 | – | N=C(N)c1ccc(CNC(=O)[C@H](Cc2ccccc2)NC(=O)[C@@H](CC2CCCCC2)NCC(=O)O)cc1 [Example 71.05]
10 to 40 | 3 to 10 | – | C[C@@H]1CCC[C@H](C)N1CC(=O)N1CC[C@H]1C(=O)NCc1ccc2c(N)nccc2c1 [Example 32.11]

IC50 (Human FXIa; category scale) [µM] | IC50 (Human Factor XIIa) [µM] | IC50 (Human FXIa; numeric bound printed instead of category) [µM] | SMILES
> 40 | 0.28 to 1 | – | CC(C)N[C@H](CCc1ccccc1)C(=O)N1CC[C@H]1C(=O)NCc1cnc2[nH]cc(Cl)c2c1 [Example 27.08]
> 40 | 0.28 to 1 | – | CC(C)N[C@H](CCCN1CCCCC1)C(=O)N1CC[C@H]1C(=O)NCc1ccc2c(N)nccc2c1 [Example 17.11]
3 to 10 | 0.28 to 1 | – | CC(C)N[C@H](CCc1ccccc1)C(=O)N[C@@H](C)C(=O)NCc1ccc2c(N)nccc2c1 [Example 6.11]
> 40 | 3 to 10 | – | CC(=O)N1C[C@H](c2ccccc2)C[C@H]1C(=O)NCc1ccc2c(N)nccc2c1 [Example 43.01]
– | 10 to 40 | – | Nc1nccc2cc(CNC(=O)[C@H](Cc3ccc(F)c(F)c3)NC(=O)Cc3ccccn3)ccc12 [Example 3.34]
– | 10 to 40 | – | C[C@@H]1CCC[C@H](C)N1CC(=O)N1c2ccccc2CC[C@H]1C(=O)NCc1ccc2c(N)nccc2c1 [Example 32.09]
– | 1 to 3 | – | Nc1nccc2cc(CNC(=O)CNC(=O)[C@@H](CCc3ccccc3)NS(=O)(=O)Cc3ccccc3)ccc12 [Example 18.102]
– | 10 to 40 | – | CCC(C)[C@H](C(=O)NCC(=O)NCc1ccc2c(N)nccc2c1)N(C)C (some centres unmarked) [Example 18.103]
– | 10 to 40 | – | CC(C)c1ncncc1C(=O)N[C@@H](Cc1ccc(F)c(F)c1)C(=O)NCc1ccc2c(N)nccc2c1 [Example 0.89]
– | 3 to 10 | – | CS(=O)(=O)c1cccc(CC(=O)N[C@@H](Cc2ccc(F)c(F)c2)C(=O)NCc2ccc3c(N)nccc3c2)c1 [Example 3.24]
– | 3 to 10 | – | CC(C)N[C@H](CCc1ccccc1)C(=O)N[C@@H](C)C(=O)NCc1ccnc(N)c1 [Example 9.09]
– | 1 to 3 | – | Nc1nccc2cc(CNC(=O)[C@H](Cc3ccc(F)c(F)c3)NC(=O)CN3CCCCC3)ccc12 [Example 3.06]
– | 10 to 40 | – | CS(=O)(=O)N[C@@H](Cc1ccc(F)c(F)c1)C(=O)NCc1ccc2c(N)nccc2c1 [Example 55.02]
– | 10 to 40 | – | Nc1nccc2cc(CNC(=O)[C@H](Cc3ccc(F)c(F)c3)NC(=O)c3cn[nH]c3)ccc12 [Example 0.65]
– | 10 to 40 | – | Nc1nccc2cc(CNC(=O)[C@H](Cc3ccc(F)c(F)c3)NC(=O)c3nc4ccccc4[nH]c3=O)ccc12 [Example 0.74]
– | 10 to 40 | – | Nc1nccc2cc(CNC(=O)[C@H](Cc3ccc(F)c(F)c3)NC(=O)C[C@H]3CCCO3)ccc12 [Example 3.36]
– | 3 to 10 | – | Cc1cc(C(=O)N[C@@H](Cc2ccc(F)c(F)c2)C(=O)NCc2ccc3c(N)nccc3c2)n[nH]1 [Example 0.14]
– | 10 to 40 | – | Nc1nccc2cc(CNC(=O)[C@H](Cc3ccc(F)c(F)c3)NC(=O)c3ccccc3N3CCOCC3)ccc12 [Example 0.04]
– | 1 to 3 | – | Nc1nccc2cc(CNC(=O)[C@H](Cc3ccc(F)c(F)c3)NC(=O)c3cnc4n(c3=O)CCS4)ccc12 [Example 0.37]

IC50 (Human FXIa; category scale) [µM] | IC50 (Human Factor XIIa) [µM] | IC50 (Human FXIa; numeric bound printed instead of category) [µM] | SMILES
– | 0.1 to 0.279 | – | C[C@@H]1CCC[C@H](C)N1CC(=O)N[C@@H](Cc1ccccc1)C(=O)NCc1ccc2c(N)nccc2c1 [Example 3.11]
– | 10 to 40 | – | CC1CCCC(C)N1CC(=O)NCCC(=O)NCc1ccc2c(N)nccc2c1 (centres unmarked) [Example 39.01]
– | 3 to 10 | – | Cc1cc(C)c(C(=O)N[C@@H](Cc2ccc(F)c(F)c2)C(=O)NCc2ccc3c(N)nccc3c2)[nH]1 [Example 0.01]
– | 1 to 3 | – | CCC(C)[C@@H](N)C(=O)N[C@@H](Cc1cccc2ccccc12)C(=O)NCc1ccc2c(N)nccc2c1 (some centres unmarked) [Example 18.101]
– | 10 to 40 | – | CC(C)N[C@H](CCc1ccccc1)C(=O)N[C@@H](C)C(=O)NCCc1ccnc(N)c1 [Example 9.12]
– | 1 to 3 | – | Nc1nccc2cc(CNC(=O)[C@H](Cc3ccc(F)c(F)c3)NC(=O)c3ccc(Cn4cnnn4)cc3)ccc12 [Example 0.67]
– | 10 to 40 | – | Cn1cncc1C(=O)N[C@@H](Cc1ccc(F)c(F)c1)C(=O)NCc1ccc2c(N)nccc2c1 [Example 0.69]
– | 3 to 10 | – | Nc1nccc2cc(CNC(=O)[C@H](Cc3ccc(F)c(F)c3)NC(=O)c3ccnnc3)ccc12 [Example 0.16]
– | 10 to 40 | – | N#Cc1ccccc1CN[C@@H](Cc1ccc(F)c(F)c1)C(=O)NCc1ccc2c(N)nccc2c1 [Example 55.03]
– | 10 to 40 | – | Nc1nccc2cc(CNC(=O)[C@H](Cc3ccc(F)c(F)c3)NC(=O)c3ncccn3)ccc12 [Example 0.18]
– | 0.28 to 1 | – | CC(C)(NC(=O)[C@H](N)CCc1ccccc1)C(=O)NCc1ccc2c(N)nccc2c1 [Example 6.06]
– | 1 to 3 | – | Nc1nccc2cc(CNC(=O)[C@H](Cc3ccc(F)c(F)c3)NC(=O)c3ccn4ncnc4n3)ccc12 [Example 0.93]
– | 10 to 40 | – | Nc1nccc2cc(CNC(=O)[C@H](Cc3ccc(F)c(F)c3)NC(=O)COCc3ccccc3)ccc12 [Example 0.39]
– | 10 to 40 | – | CC(C)N1CCC[C@@H]1C(=O)N[C@@H](Cc1ccc(F)c(F)c1)C(=O)NC1CCN(c2ccncc2)CC1 [Example 44.02]
– | 3 to 10 | – | COc1cc(C(=O)N[C@@H](Cc2ccc(F)c(F)c2)C(=O)NCc2ccc3c(N)nccc3c2)on1 [Example 0.32]
– | 10 to 40 | – | COc1ncccc1C(=O)N[C@@H](Cc1ccc(F)c(F)c1)C(=O)NCc1ccc2c(N)nccc2c1 [Example 0.42]
– | 3 to 10 | – | CC(C)(C)OC(=O)N[C@H](CCc1ccccc1)C(=O)N1CCC[C@H]1C(=O)NCc1ccc2c(N)nccc2c1 [Example 17.01]
– | 10 to 40 | – | Nc1nccc2cc(CNC(=O)[C@H](Cc3ccc(F)c(F)c3)NC(=O)COc3cccnc3)ccc12 [Example 20.02]
– | 10 to 40 | – | C[C@@H]1CCC[C@H](C)N1CC(=O)N[C@H](CC(=O)NCc1ccc2c(N)nccc2c1)Cc1ccccc1 [Example 39.04]

— US20220298138A1, “ENZYME INHIBITORS” (KALVISTA PHARMACEUTICALS LIMITED, priority 2019, published 2022)
